Data set [1] deals with isolated rat bladder strips. As to the kind of experiment: Inhibition of contractions of isolated rat bladder strips. Particulars: for IC50: 0.5 h; for inhibition at 30 µM: read-out: % Inhibition of Contractility @ 30 μM. The method, then:
The compounds of the examples were tested to determine their ability to inhibit contractions of isolated rat bladder strips. See Foster, C. […] Malmgren, A. et al. J.Urol.
Male Sprague-Dawley rats (150-200 g) were obtained from ACE animal suppliers. Animals were allowed free access to food and water.
Animals were euthanized by CO2 asphyxiation followed by a bilateral thoracotomy. […] The bladder was opened and then cut into strips 1-2 mm in width and 7-10 mm in length. The strips were subsequently suspended in a 10 ml tissue bath under an initial resting tension of 1.5 g. The strips were held in place by two surgical clips one of which was attached to a fixed hook while the other was attached to an isometric force transducer. […] The carbachol was then washed out and the tissue allowed to relax to its resting level of activity. Following a further 30 minute period of recovery an additional 15 mM KCl were introduced into the tissue bath. […] Following stabilization of this enhanced level of contractile activity, incremental increases in the concentration of test compound or vehicle were introduced into the tissue bath. Contractile activity was measured for each compound or vehicle concentration during the last minute of a 30 minute challenge.
Isometric force developed by the bladder strips was measured using a force transducer and recorded on a polygraph. Contractile activity was assessed by measuring either the average amplitude of the contractions (baseline to peak force) occurring during a one minute period or, preferably, by integrating the contractile activity with respect to time (one minute measuring period).
The percentage inhibition of contractile activity evoked by each concentration of a given test compounds was used to generate a concentration-response curve.

[2] abbreviates: concentration eliciting 50% inhibition of pre-drug contractile activity, strips stimulated with additional 15 mM KCl, 30 minute challenge per concentration, read-out: IC50.
Where [3] appears, read: maximum percentage inhibition of contractile activity, 30 μM, strips stimulated with additional 15 mM KCl.

Consider 36 compounds from patent US7601856B2 (Wyeth, priority 2006, dated 2009).

Where two headings read alike, the source gives them in different places.

`CC(C)(C)C(=O)Nc1ccc2oc3c(c2c1)CCCC3` [Example 1, 2,2-DIMETHYL-N-(6,7,8,9-TETRAHYDRO-DIBENZOFURAN-2-YL)-PROPIONAMIDE]: the melting point lay in the range of 210 to 211 °C. In addition, the half-maximal inhibitory concentration (IC50) in data set [1] (setting [2]) was in the range of 0.2 to 0.7 µM.
`CC(C)CC(=O)Nc1ccc2oc3c(c2c1)CCCC3` [Example 2, 3-METHYL-N-(6,7,8,9-TETRAHYDRO-DIBENZOFURAN-2-YL)-BUTYRAMIDE] gave a melting point of 154 to 157 °C. Besides, the concentration for half-maximal inhibition (IC50) in data set [1] (setting [2]) is 1.2 to 4 µM.
The compound `CC(C)(C)CC(=O)Nc1ccc2oc3c(c2c1)CCCC3` [Example 3, 3,3-DIMETHYL-N-(6,7,8,9-TETRAHYDRO-DIBENZOFURAN-2-YL)-BUTYRAMIDE] yielded a melting point of 164 to 165 °C. The half-inhibitory concentration (IC50) in data set [1] (setting [2]) is 3 to 11 µM.
Consider `O=C(Cc1ccccc1)Nc1ccc2oc3c(c2c1)CCCC3` [Example 4, 2-PHENYL-N-(6,7,8,9-TETRAHYDRO-DIBENZOFURAN-2-YL)-ACETAMIDE], for which the melting point lay in the range of 180 to 181 °C. Moreover, the half-inhibitory concentration (IC50) in data set [1] (setting [2]) fell in the range of 9.1 to 12 µM.
Regarding `O=C(Nc1ccc2oc3c(c2c1)CCCC3)C12CC3CC(CC(C3)C1)C2` [Example 5, ADAMANTANE-1-CARBOXYLIC ACID (6,7,8,9-TETRAHYDRO-DIBENZOFURAN-2-YL)-AMIDE], the melting point was in the range of 247 to 248 °C. The inhibition at 30 µM in data set [1] (setting [3]) is 10 to 30%.
For the compound `CC(C)(C)c1ccc(C(=O)Nc2ccc3oc4c(c3c2)CCCC4)cc1` [Example 6, 4-TERT-BUTYL-N-(6,7,8,9-TETRAHYDRO-DIBENZOFURAN-2-YL)-BENZAMIDE], the melting point lay within 185 to 186 °C. In addition, in data set [1] (setting [3]), the inhibition at 30 µM is 10 to 20%.
Turning to `O=C(CC1CCCCC1)Nc1ccc2oc3c(c2c1)CCCC3` [Example 7, 2-CYCLOHEXYL-N-(6,7,8,9-TETRAHYDRO-DIBENZOFURAN-2-YL)-ACETAMIDE], the melting point is 189 to 191 °C. Besides, in data set [1] (setting [2]), the concentration for half-maximal inhibition (IC50) fell in the range of 10 to 15 µM.
The like results for `CCC(=O)Nc1ccc2oc3c(c2c1)CCCC3` [Example 8, N-(6,7,8,9-TETRAHYDRO-DIBENZOFURAN-2-yl)-PROPIONAMIDE] were, in that order, 164 to 165 °C and 4 to 8 µM.
In turn, `CC(C)C(=O)Nc1ccc2oc3c(c2c1)CCCC3` [Example 9, N-(6,7,8,9-TETRAHYDRO-DIBENZOFURAN-2-YL)-ISOBUTYRAMIDE] displayed a melting point of 206.5 to 208 °C. The IC50 in data set [1] (setting [2]) fell in the range of 6 to 8 µM.
`CC(=O)Nc1ccc2oc3c(c2c1)CCCC3` [Example 11, N-(6,7,8,9-TETRAHYDRO-DIBENZOFURAN-2-YL)-ACETAMIDE] returned a melting point of 195.5 to 197.5 °C. Further, the inhibition at 30 µM in data set [1] (setting [3]) was in the range of 20 to 30%.
Take `Cc1ccccc1C(=O)Nc1ccc2oc3c(c2c1)CCCC3` [Example 12, 2-METHYL-N-(6,7,8,9-TETRAHYDRO-DIBENZOFURAN-2-YL)-BENZAMIDE]: the melting point is 209 to 210 °C. Moreover, the inhibition at 30 µM in data set [1] (setting [3]) lay in the range of 20 to 30%.
As for `COc1ccc(C(=O)Nc2ccc3oc4c(c3c2)CCCC4)cc1` [Example 13, 4-METHOXY-N-(6,7,8,9-TETRAHYDRO-DIBENZOFURAN-2-YL)-BENZAMIDE], the melting point was in the range of 197 to 197.5 °C. Moreover, in data set [1] (setting [3]), the inhibition at 30 µM lay within 15 to 25%.
`CC(C)CCC(=O)Nc1ccc2oc3c(c2c1)CCCC3` [Example 14, 4-METHYL-N-(6,7,8,9-TETRAHYDRO-DIBENZOFURAN-2-YL)-PENTANAMIDE]: the melting point fell in the range of 145.5 to 146 °C. The IC50 in data set [1] (setting [2]) is 10 to 20 µM.
`C[C@H](NC(=O)[C@H](Cc1ccccc1)NC(=O)OCc1ccccc1)C(=O)Nc1ccc2oc3c(c2c1)CCCCC3` [Example 58, N-[(BENZYLOXY)CARBONYL]-L-PHENYLALANYL-N^1-7,8,9,10-TETRAHYDRO-6H-BENZO[B]CYCLOHEPTA[D]FURAN-2-YL-L-ALANINAMIDE]: the inhibition at 30 µM in data set [1] (setting [3]) lay in the range of 30 to 40%.
`CC(=O)N1CCC[C@H]1C(=O)Nc1ccc2oc3c(c2c1)CCCCC3` [Example 60, 1-ACETYL-N-7,8,9,10-TETRAHYDRO-6H-BENZO[B]CYCLOHEPTA[D]FURAN-2-YL-L-PROLINAMIDE]: in data set [1] (setting [2]), the IC50 lay within 1.3 to 2.5 µM.
As to `CC(CC(=O)Nc1ccc2oc3c(c2c1)CCCCCC3)CC(C)(C)C` (stereo not shown) [Example 66, N-(6,7,8,9,10,11-HEXAHYDROBENZO[B]CYCLOOCTA[D]FURAN-2-YL)-3,5,5-TRIMETHYLHEXANAMIDE], the inhibition at 30 µM in data set [1] (setting [3]) was 5 to 20%.
`O=C(Nc1ccc2oc3c(c2c1)CCCCCC3)c1cccs1` [Example 67, N-(6,7,8,9,10,11-HEXAHYDROBENZO[B]CYCLOOCTA[D]FURAN-2-YL)THIOPHENE-2-CARBOXAMIDE]: in data set [1] (setting [2]), the IC50 is 0.6 to 0.8 µM.
In the case of `CC(C)(C)c1ccc(C(=O)Nc2ccc3oc4c(c3c2)CCCCCC4)cc1` [Example 68, 4-TERT-BUTYL-N-(6,7,8,9,10,11-HEXAHYDROBENZO[B]CYCLOOCTA[D]FURAN-2-YL)BENZAMIDE], the inhibition at 30 µM in data set [1] (setting [3]) was 20 to 40%.
Take `Cc1cccc(C(=O)Nc2ccc3oc4c(c3c2)CCCCCC4)c1` [Example 69, N-(6,7,8,9,10,11-HEXAHYDROBENZO[B]CYCLOOCTA[D]FURAN-2-YL)-3-METHYLBENZAMIDE]: the inhibition at 30 µM in data set [1] (setting [3]) was 10 to 20%.
Still for that read-out and setting: then `O=C(CCC1CCCC1)Nc1ccc2oc3c(c2c1)CCCCCC3` [Example 70, 3-CYCLOPENTYL-N-(6,7,8,9,10,11-HEXAHYDROBENZO[B]CYCLOOCTA[D]FURAN-2-YL)PROPANAMIDE], with 15 to 30%.
Take `CCCCCC(=O)Nc1ccc2oc3c(c2c1)CCCCCC3` [Example 71, N-(6,7,8,9,10,11-HEXAHYDROBENZO[B]CYCLOOCTA[D]FURAN-2-YL)HEXANAMIDE]: the half-inhibitory concentration (IC50) in data set [1] (setting [2]) fell in the range of 0.2 to 1 µM.
Regarding `O=C(CCc1ccccc1)Nc1ccc2oc3c(c2c1)CCCCCC3` [Example 72, N-(6,7,8,9,10,11-HEXAHYDROBENZO[B]CYCLOOCTA[D]FURAN-2-YL)-3-PHENYLPROPANAMIDE], the IC50 in data set [1] (setting [2]) is 0.8 to 2.2 µM.
Take `CC(=O)Nc1ccc2oc3c(c2c1)CCCCCC3` [Example 73, N-(6,7,8,9,10,11-HEXAHYDROBENZO[B]CYCLOOCTA[D]FURAN-2-YL)ACETAMIDE]: the IC50 in data set [1] (setting [2]) lay within 0.4 to 1.1 µM.
As for `O=C(Nc1ccc2oc3c(c2c1)CCCCCC3)c1ccco1` [Example 74, N-(6,7,8,9,10,11-HEXAHYDROBENZO[B]CYCLOOCTA[D]FURAN-2-YL)-2-FURAMIDE], the half-inhibitory concentration (IC50) in data set [1] (setting [2]) was 10 to 15 µM.
Regarding `O=C(Cc1ccccc1)Nc1ccc2oc3c(c2c1)CCCCCC3` [Example 75, N-(6,7,8,9,10,11-HEXAHYDROBENZO[B]CYCLOOCTA[D]FURAN-2-YL)-2-PHENYLACETAMIDE], in data set [1], the inhibition at 30 µM was 30 to 40%.
Turning to `COc1cccc(OC)c1C(=O)Nc1ccc2oc3c(c2c1)CCCCCC3` [Example 76, N-(6,7,8,9,10,11-HEXAHYDROBENZO[B]CYCLOOCTA[D]FURAN-2-YL)-2,6-DIMETHOXYBENZAMIDE], in data set [1] (setting [2]), the IC50 was in the range of 7 to 14 µM.
Take `O=C(Nc1ccc2oc3c(c2c1)CCCCCC3)c1ccncc1` [Example 77, N-(6,7,8,9,10,11-HEXAHYDROBENZO[B]CYCLOOCTA[D]FURAN-2-YL)ISONICOTINAMIDE]: the inhibition at 30 µM in data set [1] (setting [3]) fell in the range of 30 to 50%.
`O=C(Cc1ccncc1)Nc1ccc2oc3c(c2c1)CCCCCC3` [Example 78, N-(6,7,8,9,10,11-HEXAHYDROBENZO[B]CYCLOOCTA[D]FURAN-2-YL)-2-PYRIDIN-4-YLACETAMIDE] had a concentration for half-maximal inhibition (IC50) in data set [1] of 10 to 14 µM.
Take `O=C(CCl)Nc1ccc2oc3c(c2c1)CCCCCC3` [Example 79, 2-CHLORO-N-6,7,8,9,10,11-HEXAHYDROBENZO[B]CYCLOOCTA[D]FURAN-2-YLACETAMIDE]: the 50% inhibitory concentration (IC50) in data set [1] lay in the range of 0.2 to 0.4 µM.
In the case of `O=C(CO)Nc1ccc2oc3c(c2c1)CCCCCC3` [Example 80, N-6,7,8,9,10,11-HEXAHYDROBENZO[B]CYCLOOCTA[D]FURAN-2-YL-2-HYDROXYACETAMIDE], the inhibition at 30 µM in data set [1] (setting [3]) lay in the range of 30 to 50%.
Regarding `CCCCC(=O)Nc1ccc2oc3c(c2c1)CCCCCC3` [Example 81, N-6,7,8,9,10,11-HEXAHYDROBENZO[B]CYCLOOCTA[D]FURAN-2-YLPENTANAMIDE], the inhibition at 30 µM in data set [1] was 10 to 30%.
Compound `CCCCCCC(=O)Nc1ccc2oc3c(c2c1)CCCCCC3` [Example 82, N-6,7,8,9,10,11-HEXAHYDROBENZO[B]CYCLOOCTA[D]FURAN-2-YLHEPTANAMIDE] returned an IC50 in data set [1] of 0.6 to 2 µM.
Turning to `CCOC(=O)Nc1ccc2oc3c(c2c1)CCCCC3` [Example 85, ETHYL 7,8,9,10-TETRAHYDRO-6H-BENZO[B]CYCLOHEPTA[D]FURAN-2-YLCARBAMATE], in data set [1] (setting [3]), the inhibition at 30 µM was in the range of 40 to 60%.
With `O=C(Nc1ccc2oc3c(c2c1)CCCCCC3)N1CCOCC1` [Example 86, N-(6,7,8,9,10,11-HEXAHYDROBENZO[B]CYCLOOCTA[D]FURAN-2-YL)MORPHOLINE-4-CARBOXAMIDE], the IC50 in data set [1] (setting [2]) is 7 to 9 µM.
As for `CN(C)C(=O)Nc1ccc2oc3c(c2c1)CCCCCC3` [Example 87, N′-(6,7,8,9,10,11-HEXAHYDROBENZO[B]CYCLOOCTA[D]FURAN-2-YL)-N,N-DIMETHYLUREA], the inhibition at 30 µM in data set [1] (setting [3]) was 25 to 35%.
For the compound `CC(C)OC(=O)Nc1ccc2oc3c(c2c1)CCCCCC3` [Example 88, ISOPROPYL 6,7,8,9,10,11-HEXAHYDROBENZO[B]CYCLOOCTA[D]FURAN-2-YLCARBAMATE], the inhibition at 30 µM in data set [1] (setting [3]) is 20 to 30%.

Usually melting point stands for the temperature, or range, at which the solid turns liquid. For orientation: IC50 means the concentration that inhibits the measured activity by half. By inhibition is commonly meant the drop in the measured response relative to a control, in per cent.
